Assay [1] relates to human regulatory T-lymphocytes (CD4+CD25+). The assay is described as follows: Gene expression of TGF-β1 (TGF-β1-mRNA) in human regulatory T-lymphocytes, quantitative RT-PCR. The class given is cell-based. Conditions: PHA/PMA plus inhibitor. The protocol: Induction of the Gene Expression of TGF-β1 in Human Regulatory T-Lymphocytes (CD4^+CD25^+) After an Incubation with the Inhibitor Phebestin
The T-cells were incubated for 24 h without adding (control), with adding PHA and PMA or with simultaneously adding PHA/PMA and phebestin. PHA (phythemagglutinine) and PMA (phorbol myristate acetate) were used as mito-gens and agents stimulating the proliferation. Subsequently, the content of TGF-β1-mRNA was determined by quantitative RT-PCR and using the i-cycler.
Induction of the Gene Expression of TGF-β1 in Human Regulatory T-Lymphocytes (CD4^+CD25^+) after an incubation with the inhibitor PAQ-22
The T-cells were incubated for 24 h without adding (control), with adding PHA and PMA and with simultaneously adding PHA/PMA and PAQ-22. PHA (phythemagglutinine) and PMA (phorbol myristate acetate) were used as mito-gens and agents stimulating the proliferation. Subsequently, the content of TGF-β1-mRNA was determined by quantitative RT-PCR and using the i-cycler.
Induction of the Gene Expression of TGF-β1 in Human Regulatory T-Lymphocytes (CD4^+CD25^+) After an Incubation with the Aminopeptidase Inhibitor RB3014
The T-cells were incubated for 72 h without adding (control), with adding PHA and PMA and with simultaneously adding PHA/PMA and RB3014. PHA (phythemagglutinine) and PMA (phorbol myristate acetate) were used as mito-gens and agents stimulating the proliferation. Subsequently, the content of TGF-β1-mRNA was determined by quantitative RT-PCR and using the i-cycler.

Assay [2] has the same test system. As to the kind of experiment: Surface expression of TGF-β1 on human regulatory T-lymphocytes, flow cytometry with anti-TGF-β1 antibody. The class given is cell-based. Conditions: 24 h incubation, PHA/PMA plus inhibitor; results only in FIG. 1. How it is done:
Induction of the Surface Expression of TGF-β1 on Human Regulatory T-Lymphocytes (CD4^+CD25^+) After Incubation with the Inhibitor Phebestin
The T-cells were incubated for 24 h without adding (control), with adding PHA and PMA and with simultaneously adding PHA/PMA and phebestin. PHA (phythemagglutinine) and PMA (phorbol myristate acetate) were used as mito-gens and agents stimulating the proliferation. Subsequently, the surface expression of TGF-β1 was measured by flow cytometry using a commercially available polyclonal anti-TGF-β1 antibody (chicken anti-human; R & D Systems).
(In general: A flow cytometer gives signals particle by particle.)

[3] abbreviates: 24 h incubation, results only in FIG. 2, FIG. 3.

For the compound `CC(N)P(=O)(O)CC(Cc1ccccc1)C(=O)NC(Cc1ccccc1)C(=O)O` (stereo not shown) [RB3014], the “gene expression of TGF-β1 (content of TGF-β1-mRNA)” value (from here on “gene expression of TGF-β1”) in assay [1] (72 h incubation, results only in FIG. 4) is “Induction”.

Consider `CC(C)[C@H](NC(=O)[C@@H](O)[C@H](N)Cc1ccccc1)C(=O)N[C@@H](Cc1ccccc1)C(=O)O` [Phebestin, phebestin], for which the “gene expression of TGF-β1” value in assay [1] (setting [3]) is on record as “Induction”. Further, the “surface expression of TGF-β1” value in assay [2] is reported as “Induction”.

Take `CCc1cccc(CC)c1-n1c(=O)[nH]c2ccccc2c1=O` [PAQ-22]: the “gene expression of TGF-β1” value in assay [1] (setting [3]) is reported as “Induction”.

For the origin of these results see US7425532B2, “Use of alanyl aminopeptidase inhibitors and pharmaceutical compositions containing said inhibitors” (IMTM GmbH, priority 2002, dated 2008).
